The values that follow come from patent publication US20100267629A1, “Enterostatin as Therapeutic Agent for Hypoglycemia” (Board of Supervisors of Louisiana State University and …, priority 2006, published 2010).

One test deals with F1-ATPase β-subunit (Homo sapiens, UniProt P06576). The settings on record: effect of the analog on binding of 125I-β-casomorphin1-7 to F1-ATPase β-subunit; cited from earlier work.
Another test has as its system rats. The settings on record: in overnight fasted rats; cited from earlier work.
The conditions of test [1]: in vivo; cited from earlier work.
A further test deals with AMPK. The test can be described thus: pAMPK Western blot in HepG2 cells, 15 min incubation. Type of test: cell-based, human. The method, then: Human liver cells (HepG2 cell line, American Type Culture Collection, Manassas, Va.) were grown and maintained in Dulbecco's modified eagle's medium (Gibco, Carlsbad, Calif.) containing 10% fetal bovine serum, penicillin (100 I.U./ml), and streptomycin (100 μg/ml). The cells were then incubated for 15 min with 5 mM glucose and various concentrations of enterostatin (0.003, 0.01, 0.1, 1, and 3 μM) and/or of its antagonist β-casomorphin (BCM) (0.003, 0.01, 0.1, 1, and 3 μM). After incubation, the cells were lysed and the cytosolic proteins subjected to Western blot analysis for AMPK and pAMPK. The results for pAMPK activity are shown in FIG. 5A (enterostatin) and FIG. 5B (BCM). […] This effect was blocked by the presence of an antibody to the enterostatin receptor (anti F1-ATPase beta subunit).

F1-ATPase β-subunit, sequence (P06576 48-529): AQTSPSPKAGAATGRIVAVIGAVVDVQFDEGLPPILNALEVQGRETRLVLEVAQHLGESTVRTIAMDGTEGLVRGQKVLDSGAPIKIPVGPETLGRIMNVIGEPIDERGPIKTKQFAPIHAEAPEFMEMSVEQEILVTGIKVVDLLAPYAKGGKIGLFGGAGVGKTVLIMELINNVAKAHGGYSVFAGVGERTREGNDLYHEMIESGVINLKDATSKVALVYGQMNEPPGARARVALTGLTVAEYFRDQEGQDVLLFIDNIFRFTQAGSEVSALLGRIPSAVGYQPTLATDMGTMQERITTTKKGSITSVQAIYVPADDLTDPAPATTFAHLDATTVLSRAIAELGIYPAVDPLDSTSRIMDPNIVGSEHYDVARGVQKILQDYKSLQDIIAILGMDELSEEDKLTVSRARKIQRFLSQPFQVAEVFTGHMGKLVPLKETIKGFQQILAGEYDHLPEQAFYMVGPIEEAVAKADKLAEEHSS

For the compound PGP, the “Binding of 125I-β-casomorphin1-7” value on F1-ATPase β-subunit is reported as “Increased”. Also, in the test on rats, the “Intake of high fat diet” value is listed as “No changes”. With YPFPGPI [enterostatin analog], the “Binding of 125I-β-casomorphin1-7” value with F1-ATPase β-subunit was “Displaced”. In addition, the “Intake of high fat diet” value in the test on rats was “Stimulation”. Consider APGPY, for which, at F1-ATPase β-subunit, the “Binding of 125I-β-casomorphin1-7” value is listed as “Increased”. For the same compound, the “Intake of high fat diet” value in the test on rats is “Suppression”. Regarding YVPDPR, the “Binding of 125I-β-casomorphin1-7” value on F1-ATPase β-subunit is “Increased”. In the test on rats, the “Intake of high fat diet” value was “Suppression”. Take cyclo-HP: in the test with rats, the “Intake of high fat diet” value is listed as “^bOnly inhibits food intake as cyclo-HP”. In the case of YGGAPGPR [enterostatin analog], in the test with F1-ATPase β-subunit, the “Binding of 125I-β-casomorphin1-7” value is “Increased”. Besides, the “Intake of high fat diet” value in the test with rats is recorded as “Suppression”. For VPDPR-NH2, the “Binding of 125I-β-casomorphin1-7” value at F1-ATPase β-subunit is on record as “Displaced”. Further, the “Intake of high fat diet” value in the test with rats is on record as “No changes”. Take PDP: the “Binding of 125I-β-casomorphin1-7” value at F1-ATPase β-subunit is “Increased”. The “Intake of high fat diet” value in the test on rats is recorded as “Suppression”.

For VPDPRCY [enterostatin analog], in the test with F1-ATPase β-subunit, the “Binding of 125I-β-casomorphin1-7” value is listed as “Increased”. Also, the “Intake of high fat diet” value with rats is on record as “Suppression”. As for “Glucagon: drug for severe hypoglycemia that stimulates the liver to release large amounts of glucose”, in test [1], the “Time to restore blood sugar” value is 5 to 15 min. YPDPR: the “Binding of 125I-β-casomorphin1-7” value on F1-ATPase β-subunit was “Increased”. Moreover, in the test on rats, the “Intake of high fat diet” value is given as “Suppression”. Consider DPGPR, for which the “Binding of 125I-β-casomorphin1-7” value at F1-ATPase β-subunit is recorded as “Displaced”. Also, in the test with rats, the “Intake of high fat diet” value is “No changes”. Regarding `CC1=NS(=O)(=O)c2cc(Cl)ccc2N1` [Diazoxide, diazoxide], in test [1], the Duration of action result is given as “about 8 hr” and the “Time to act (increase of blood sugar)” value is at most 1 h. Take VPDPR: the “Binding of 125I-β-casomorphin1-7” value at F1-ATPase β-subunit was “Increased”. In addition, the “Intake of high fat diet” value with rats is “Suppression”. As to CYDPGPR [enterostatin analog], the “Binding of 125I-β-casomorphin1-7” value in the test with F1-ATPase β-subunit is recorded as “Displaced”. In the test on rats, the “Intake of high fat diet” value is “Stimulation”. With CYAPGPR [enterostatin analog], in the test with F1-ATPase β-subunit, the “Binding of 125I-β-casomorphin1-7” value is recorded as “Displaced”. Also, in the test on rats, the “Intake of high fat diet” value was “Stimulation”. As for APGPR, the “Binding of 125I-β-casomorphin1-7” value on F1-ATPase β-subunit is “Increased”. Besides, the “Intake of high fat diet” value in the test with rats is “Suppression”.

Take β-casomorphin [reference compound]: the pAMPK levels result with AMPK (HepG2, 0.1 or 1.0 μM, 15 min) is reported as “increased pAMPK levels”. Besides, the “Effect on pAMPK in presence of antibody anti F1-ATPase beta subunit” value in the test on AMPK (HepG2, 15 min, 5 mM glucose) is “blocked this effect”. Moreover, the “AMPkinase activity shown by pAMPK” value in the test on AMPK (HepG2, 15 min, 5 mM glucose, 0.003-3 μM) was “activated AMPkinase”. As for YPGPR, on F1-ATPase β-subunit, the “Binding of 125I-β-casomorphin1-7” value was “Increased”. Also, the “Intake of high fat diet” value in the test with rats is given as “Suppression”.

On to PGPCY, for which the “Binding of 125I-β-casomorphin1-7” value at F1-ATPase β-subunit was “Increased”. The “Intake of high fat diet” value in the test on rats is reported as “No changes”.

Turning to APGPRY, the “Binding of 125I-β-casomorphin1-7” value at F1-ATPase β-subunit was “Increased”. In addition, the “Intake of high fat diet” value with rats is recorded as “No changes”.

In the case of APGPRCY [enterostatin analog], in the test with F1-ATPase β-subunit, the “Binding of 125I-β-casomorphin1-7” value was “Increased”. Also, the “Intake of high fat diet” value in the test on rats is listed as “Suppression”.
